Where “and” joins values, the source holds several entries; their conditions need not be identical. Equal values may be shown once.
Tested on: Meerschweinchenherzen
Experiment: Working guinea pig heart, ischaemia/reperfusion with activated PMN and platelets (Versuchsgruppe 1)
Parameters: species or system Meerschweinchen
Settings: for Herzleistung [% der initialen Leistung] / Interstitielles Volumen / Koronarfluß [% des Basalflusses]: flavone derivative 3*10^-5 M, individual hearts; for protektive Wirkung: ischaemic heart, Versuchsgruppe 1
Protocol: Pathogene Wirkung von gleichzeitig aktivierten PMN und Thrombozyten im ischämischen Herzen. Als Studienobjekt dienten arbeitende, also Volumen gegen bestimmte Drucke auswerfende Meerschweinchenherzen. […] Thrombin, FMLP ([…]-Formyl-[…]) und […] Interaktion der Blutzellen mit dem koronaren Endothel bei diesen Versuchen. Tabelle 3: ^i Als Blutzellpräparate wurden eingesetzt: a) hochreine PMN (1-2*10^5/ml), […] Vorinkubation mit 100 μM […]) bzw. […] von PMN und TASS (bzw. T) in jeweils analogen Konzentrationen. Tabelle 3 gibt die unter […] bei […] von PMN und Thrombozyten (TASS = […] Vorinkubation mit 100μM […] = nicht […].

[1] = PMN+T (platelets not preincubated with Acetylsalicylsäure)
[2] = PMN+TASS (platelets preincubated 1 h with 100 µM Acetylsalicylsäure, washed)
[3] = acute application of the flavonoid alone
[4] = flavonoid applied in combination with Acetylsalicylsäure

Q: Which results are given for `O=C1CCOc2ccccc21` [4-Chromanon, reference compound]?
A: Herzleistung [% der initialen Leistung] [1]: 27 % der initialen Leistung and 29 % der initialen Leistung and 38 % der initialen Leistung and 31 % der initialen Leistung and 17 % der initialen Leistung and 22 % der initialen Leistung; Interstitielles Volumen [1]: 373 µL/g and 348 µL/g and 354 µL/g and 318 µL/g and 356 µL/g; Koronarfluß [% des Basalflusses] [1]: 44 % des Basalflusses and 19 % des Basalflusses and 35 % des Basalflusses and 26 % des Basalflusses and 29 % des Basalflusses; Herzleistung [% der initialen Leistung] [2]: 79 % der initialen Leistung and 81 % der initialen Leistung and 74 % der initialen Leistung and 71 % der initialen Leistung and 69 % der initialen Leistung and 78 % der initialen Leistung; Interstitielles Volumen [2]: 155 µL/g and 148 µL/g and 168 µL/g and 161 µL/g and 165 µL/g; Koronarfluß [% des Basalflusses] [2]: 88 % des Basalflusses and 74 % des Basalflusses and 79 % des Basalflusses (2×) and 81 % des Basalflusses and 82 % des Basalflusses; protektive Wirkung: keine protektive Wirkung

Q: `O=c1cc(-c2ccccc2)oc2ccccc12` [Flavon, reference compound] was tested. Which “Herzleistung [% der initialen Leistung]” value [1] did it give?
A: The value was 31 % der initialen Leistung (2×) and 18 % der initialen Leistung and 35 % der initialen Leistung and 29 % der initialen Leistung.

Q: What about the “Interstitielles Volumen” value [1] of the same compound?
A: Its value is 344 µL/g and 389 µL/g and 388 µL/g and 358 µL/g and 346 µL/g.

Q: What about the “Koronarfluß [% des Basalflusses]” value [1] of the same compound?
A: The value was 33 % des Basalflusses and 19 % des Basalflusses and 31 % des Basalflusses and 28 % des Basalflusses and 29 % des Basalflusses.

Q: What about the “Herzleistung [% der initialen Leistung]” value [2] of the same compound?
A: Its value is 78 % der initialen Leistung and 81 % der initialen Leistung and 69 % der initialen Leistung and 82 % der initialen Leistung and 83 % der initialen Leistung.

Q: And the “Interstitielles Volumen” value [2]?
A: Its value is 129 µL/g and 153 µL/g and 145 µL/g and 148 µL/g and 169 µL/g.

Q: What about the “Koronarfluß [% des Basalflusses]” value [2] of the same compound?
A: Its value is 88 % des Basalflusses and 77 % des Basalflusses and 73 % des Basalflusses and 81 % des Basalflusses and 87 % des Basalflusses.

Q: What about the “protektive Wirkung” value of the same compound?
A: Its value is “keine protektive Wirkung”.

Q: With `O=C1C[C@@H](c2ccc(O)cc2)Oc2cc(O)cc(O)c21` [Naringenin] as the compound, how does the “Herzleistung [% der initialen Leistung]” value [1] read?
A: The value was 63 % der initialen Leistung and 49 % der initialen Leistung and 54 % der initialen Leistung and 69 % der initialen Leistung and 68 % der initialen Leistung.

Q: What about the “Interstitielles Volumen” value [1] of the same compound?
A: Its value is 169 µL/g and 175 µL/g and 189 µL/g and 205 µL/g and 198 µL/g.

Q: And the “Koronarfluß [% des Basalflusses]” value [1]?
A: The value was 57 % des Basalflusses and 55 % des Basalflusses and 63 % des Basalflusses and 51 % des Basalflusses and 45 % des Basalflusses and 46 % des Basalflusses.

Q: And the “Herzleistung [% der initialen Leistung]” value [2]?
A: Its value is 90 % der initialen Leistung and 97 % der initialen Leistung and 84 % der initialen Leistung and 94 % der initialen Leistung and 82 % der initialen Leistung and 89 % der initialen Leistung.

Q: What about the “Interstitielles Volumen” value [2] of the same compound?
A: The value was 98 µL/g and 117 µL/g and 107 µL/g and 109 µL/g and 102 µL/g.

Q: What about the “Koronarfluß [% des Basalflusses]” value [2] of the same compound?
A: Its value is 107 % des Basalflusses and 98 % des Basalflusses and 93 % des Basalflusses and 92 % des Basalflusses and 89 % des Basalflusses and 101 % des Basalflusses.

Q: What about the “Verschlechterung der postischämischen Funktionsdaten (ΔP/Δt; interstitielles Volumen; Koronarfluß)” value [3] of the same compound?
A: Its value is “abgeschwächt”.

Q: And the “Verschlechterung der postischämischen Funktionsdaten (ΔP/Δt; interstitielles Volumen; Koronarfluß)” value [4]?
A: Its value is “vollständig aufgehoben”.

Q: `O=c1c(O)c(-c2ccc(O)c(O)c2)oc2cc(O)cc(O)c12` [Quercetin] was tested. Which “Herzleistung [% der initialen Leistung]” value [1] did it give?
A: Its value is 66 % der initialen Leistung and 69 % der initialen Leistung and 58 % der initialen Leistung and 44 % der initialen Leistung and 70 % der initialen Leistung.

Q: And the “Interstitielles Volumen” value [1]?
A: Its value is 159 µL/g and 178 µL/g and 181 µL/g and 185 µL/g and 162 µL/g.

Q: What about the “Koronarfluß [% des Basalflusses]” value [1] of the same compound?
A: The value was 61 % des Basalflusses and 49 % des Basalflusses (2×) and 55 % des Basalflusses and 62 % des Basalflusses and 40 % des Basalflusses.

Q: And the “Herzleistung [% der initialen Leistung]” value [2]?
A: Its value is 82 % der initialen Leistung and 86 % der initialen Leistung and 90 % der initialen Leistung and 85 % der initialen Leistung and 94 % der initialen Leistung.

Q: And the “Interstitielles Volumen” value [2]?
A: Its value is 108 µL/g and 113 µL/g and 107 µL/g and 104 µL/g and 125 µL/g and 118 µL/g.

Q: And the “Koronarfluß [% des Basalflusses]” value [2]?
A: The value was 101 % des Basalflusses and 107 % des Basalflusses and 89 % des Basalflusses and 95 % des Basalflusses and 91 % des Basalflusses.

Q: What about the “Verschlechterung der postischämischen Funktionsdaten (ΔP/Δt; interstitielles Volumen; Koronarfluß)” value [3] of the same compound?
A: The value was “abgeschwächt”.

Q: And the “Verschlechterung der postischämischen Funktionsdaten (ΔP/Δt; interstitielles Volumen; Koronarfluß)” value [4]?
A: The value was “vollständig aufgehoben”.

Q: Which results are given for Catechin [reference compound]?
A: Herzleistung [% der initialen Leistung] [1]: 36 % der initialen Leistung and 39 % der initialen Leistung and 31 % der initialen Leistung and 26 % der initialen Leistung and 18 % der initialen Leistung; Interstitielles Volumen [1]: 351 µL/g and 310 µL/g and 311 µL/g and 317 µL/g and 370 µL/g; Koronarfluß [% des Basalflusses] [1]: 37 % des Basalflusses and 27 % des Basalflusses and 34 % des Basalflusses and 17 % des Basalflusses and 14 % des Basalflusses and 28 % des Basalflusses; Herzleistung [% der initialen Leistung] [2]: 75 % der initialen Leistung and 68 % der initialen Leistung and 67 % der initialen Leistung and 81 % der initialen Leistung (2×) and 77 % der initialen Leistung; Interstitielles Volumen [2]: 145 µL/g and 157 µL/g and 163 µL/g and 148 µL/g and 166 µL/g; Koronarfluß [% des Basalflusses] [2]: 88 % des Basalflusses and 78 % des Basalflusses and 82 % des Basalflusses and 79 % des Basalflusses and 85 % des Basalflusses; protektive Wirkung: keine protektive Wirkung

Q: For Dihydroxyethylrutosid, which “Herzleistung [% der initialen Leistung]” value [1] is on record?
A: The value was 49 % der initialen Leistung and 58 % der initialen Leistung and 65 % der initialen Leistung and 72 % der initialen Leistung and 78 % der initialen Leistung and 74 % der initialen Leistung.

Q: And the “Interstitielles Volumen” value [1]?
A: The value was 144 µL/g and 186 µL/g and 151 µL/g and 157 µL/g and 165 µL/g.

Q: And the “Koronarfluß [% des Basalflusses]” value [1]?
A: The value was 49 % des Basalflusses and 51 % des Basalflusses and 39 % des Basalflusses and 47 % des Basalflusses and 64 % des Basalflusses and 69 % des Basalflusses.

Q: And the “Herzleistung [% der initialen Leistung]” value [2]?
A: The value was 93 % der initialen Leistung and 94 % der initialen Leistung and 86 % der initialen Leistung and 84 % der initialen Leistung and 89 % der initialen Leistung.

Q: And the “Interstitielles Volumen” value [2]?
A: Its value is 98 µL/g and 104 µL/g and 95 µL/g and 115 µL/g and 107 µL/g and 109 µL/g.

Q: And the “Koronarfluß [% des Basalflusses]” value [2]?
A: The value was 102 % des Basalflusses and 107 % des Basalflusses and 98 % des Basalflusses and 93 % des Basalflusses and 95 % des Basalflusses and 89 % des Basalflusses.

Q: And the “Verschlechterung der postischämischen Funktionsdaten (ΔP/Δt; interstitielles Volumen; Koronarfluß)” value [3]?
A: The value was “abgeschwächt”.

Q: What about the “Verschlechterung der postischämischen Funktionsdaten (ΔP/Δt; interstitielles Volumen; Koronarfluß)” value [4] of the same compound?
A: Its value is “vollständig aufgehoben”.
